According to the NIST ThermoML archive (doi:10.1016/j.tca.2012.05.025):
± gives the expanded uncertainty stated by the source.

Columns and labels:
[1] = xn = mol fraction of the nth substance listed; conditions: x2 = 0; for surface tension liquid-gas: roughened platinum plate-detachment; for viscosity / mass density: 101 kPa, Liquid; for viscosity: Capillary tube (Ostwald / Ubbelohde) method; for mass density: Vibrating tube method
[2] = refractive index (Na D-line) (dimensionless); xn = mol fraction of the nth substance listed; conditions: 101 kPa, Liquid, Standard Abbe refractometry, x2 = 0
[3] = for surface tension liquid-gas: roughened platinum plate-detachment; for viscosity / mass density: 101 kPa, Liquid; for viscosity: Capillary tube (Ostwald / Ubbelohde) method; for mass density: Vibrating tube method
[4] = refractive index (Na D-line) (dimensionless); conditions: 101.33 kPa, Liquid, Standard Abbe refractometry

O [water] + CN(C)CCCO
Conditions	mass density, [1] [kg/m3]	refractive index, [2]	surface tension liquid-gas, [1] [mN/m]	viscosity, [1] [mPa·s]
293.15 K	–	1.333 ± 0.005	–	–
298.15 K	–	1.3325 ± 0.005	72.09 ± 2	0.882 ± 0.018
303.15 K	–	1.3319 ± 0.005	71.27 ± 2	0.804 ± 0.017
308.15 K	–	1.3314 ± 0.005	70.44 ± 2	–
313.15 K	–	1.3307 ± 0.005	69.66 ± 2	0.659 ± 0.014
318.15 K	–	1.3299 ± 0.005	68.83 ± 2	–
323.15 K	988.03 ± 0.11	1.3291 ± 0.005	67.95 ± 2	0.551 ± 0.012
328.15 K	–	1.3282 ± 0.005	–	–
333.15 K	983.19 ± 0.11	1.3273 ± 0.005	66.23 ± 2	0.47 ± 0.01
343.15 K	977.75 ± 0.11	–	–	0.407 ± 0.009

O [water]
Conditions	mass density, [3] [kg/m3]	refractive index, [4]	surface tension liquid-gas, [3] [mN/m]	viscosity, [3] [mPa·s]
293.15 K	–	1.333 ± 0.005	–	–
298.15 K	–	1.3325 ± 0.005	72.09 ± 0.1	0.882 ± 0.018
303.15 K	–	1.3319 ± 0.005	71.27 ± 0.1	0.804 ± 0.017
308.15 K	–	1.3314 ± 0.005	70.44 ± 0.1	–
313.15 K	–	1.3307 ± 0.005	69.66 ± 0.1	0.659 ± 0.014
318.15 K	–	1.3299 ± 0.005	68.83 ± 0.1	–
323.15 K	988.03 ± 0.11	1.3291 ± 0.005	67.95 ± 0.1	0.551 ± 0.012
328.15 K	–	1.3282 ± 0.005	–	–
333.15 K	983.19 ± 0.11	1.3273 ± 0.005	66.23 ± 0.1	0.47 ± 0.01
343.15 K	977.75 ± 0.11	–	–	0.407 ± 0.009

CN(C)CCCO [3-dimethylamino-1-propanol]
Conditions	mass density, [3] [kg/m3]	refractive index, [4]	surface tension liquid-gas, [3] [mN/m]	viscosity, [3] [mPa·s]
293.15 K	–	1.4368 ± 0.005	–	–
298.15 K	880.25 ± 0.24	1.4347 ± 0.005	29.01 ± 0.18	5.839 ± 0.12
303.15 K	876.46 ± 0.24	1.4326 ± 0.005	29.28 ± 0.18	4.963 ± 0.11
308.15 K	–	1.4305 ± 0.005	28.88 ± 0.18	–
313.15 K	868.42 ± 0.24	1.4285 ± 0.005	28.47 ± 0.17	4.266 ± 0.091
318.15 K	–	1.4264 ± 0.005	28.13 ± 0.17	–
323.15 K	860.29 ± 0.24	1.4243 ± 0.005	27.63 ± 0.17	3.253 ± 0.069
328.15 K	–	1.4222 ± 0.005	–	–
333.15 K	852.1 ± 0.24	1.42 ± 0.005	26.81 ± 0.17	2.768 ± 0.059
343.15 K	843.77 ± 0.24	–	–	2.03 ± 0.043
